In patent publication US4568490A, “Aminopropylaminobleomycin derivatives and process for preparation thereof” (Zaidan Hojin Biseibutsu Kagaku Kenkyu Kai, priority 1981, dated 1986):

Assays:
[1] = system: Hela S3 cells; assay: Growth inhibitory activity against Hela S3 cells; assay type: cell-based; settings: Cu-free form; Hela S3, 3 days incubation with compound
Experimental: The percentage growth inhibition was calculated using the equation: […] wherein A is the ultimate number of cells on the third day from the addition of a test sample, B is the ultimate number of cells in the control (without the addition of test sample), and C is the number of cells on the day of addition of the test sample.

[2] = system: Mycobacterium smegmatis ATCC 607; assay: Antimicrobial activity, agar plate-cylinder method; assay type: cell-based; settings: Cu-free form; bleomycin A2 (Cu-free form) standard assumed 1,000 mcg/mg
Experimental: (§1) The activity was assayed against the above test microorganisms by the method of agar plate-cylinder, assuming the potency of bleomycin A2 (Cu-free form), used as standard, to be 1,000 mcg/mg.

[3] = system: Lymphocytic leukemia P-388; assay: In vivo antitumor activity, murine lymphocytic leukemia P-388; settings: BDF1-SLC mice, i.p. transplant, once daily for 9 days, 30 days observation; T/C more than 130 effective
Experimental: The following data with respect to the testing of a group of the presently claimed substances in vivo according to a standard test method involving murine lymphocytic leukemia P-388 is presented to lend further assurance as to the utility of the compounds as inhibitors of mammalian tumors.
Lymphocytic leukemia P-388 cells (1×10^5 /0.2 ml) were transplanted intraperitoneally into male BDF1 -SLC mice (5 mice/group). Each of the compounds of this invention was diluted with physiological saline to various concentrations. Each dilution was administered at a dose of 0.1 ml/10 g of body weight once daily for 9 days, starting on the day after the day of the transplantation. The mice of the control group were administered physiological saline.
The average number of days that the group receiving the compound of this invention survived was calculated. The figure obtained was divided by the average number of survival days for the control group, and was multiplied by 100 (T/C (%)).
T/C value more than 130 was considered to be effective.

[4] = system: ICR strain mice; assay: Pulmonary toxicity (pulmonary fibrosis) in mice, intraperitoneal injection; assay type: in vivo; settings: 5 mg/kg i.p. once a day for 10 days; for Grade of pulmonary fibrosis, % / Incidence of pulmonary fibrosis, % / Incidence: number of mice suffering from pulmonary fibrosis / Grade: total score of pulmonary fibrosis/total number of test animal: autopsy after 5 weeks; for Incidence: number of mice suffering from pulmonary fibrosis: affected/total mice; for Grade: total score of pulmonary fibrosis/total number of test animal: score 0-6 points; for Grade of pulmonary fibrosis, Ratio / Incidence of pulmonary fibrosis, Ratio: reference of the ratio not stated
Experimental: (3) Pulmonary toxicity (pulmonary fibrosis) in mice.
ICR strain mice (male; 15 weeks old; 9 mice per group) were used. Each mouse was administered with a daily dose of 5 mg/kg of the test sample by intraperitoneal injection, once a day, for 10 consecutive days. After completion of the predetermined administration, the mice were kept for 5 weeks under observation, then slaughtered, and autopsied to examine the incidence and grade of pulmonary fibrosis. The evaluation was made by comparing the number of administered mice suffering from pulmonary fibrosis and the grade of the disease.
(§2) In Tables 4A and 4B, the grade was numerically rated as follows:
(§3) 1 point: Accumulation of exudate in pulmonary alveoli and fibrosis-like change in alveolar septum.
(§4) 2 points: Fibrosis in several areas.
(§5) 4 points: Scattered fibrosis.
(§6) 6 points: Fibrosis in more than two-thirds of the total area.

[5] = system: Bacillus subtilis; assay: Antimicrobial activity, agar plate-cylinder method; assay type: cell-based; settings: Cu-free form; bleomycin A2 (Cu-free form) standard assumed 1,000 mcg/mg
Experimental: (1) Antimicrobial activity against Mycobacterium smegmatis ATCC 697 and Bacillus subtilis.
as §1

[6] = system: ICR mice; assay: Pulmonary toxicity (pulmonary fibrosis) in mice, intratracheal instillation; assay type: in vivo; settings: 16 μg/50 μl/mouse intratracheally, sacrificed 4 weeks after instillation; for Grade: total score of pulmonary fibrosis/total number of samples: score 0-6 points
Experimental: Male 15 weeks old ICR mice were used. Sixteen μg/50 μl/mouse of each test sample was intratracheally instilled. The mice were sacrificed 4 weeks after instillation to examine the incidence and grade of pulmonary fibrosis. The evaluation was made by comparing the number of administered mice suffering from pulmonary fibrosis and the grade of the disease.
as §2, §3, §4, §5, §6

SMILES	50% growth inhibition concentration (ID50) of Cu--free compound against cultured Hela cell [1]	Antimicrobial potency of Cu--free compound, against Mycobacterium smegmatis ATCC 607 [2]	Max. T/C on Mouse Lymphocytic Leukemia P 388 [3]	Grade of pulmonary fibrosis, % [4]	Incidence of pulmonary fibrosis, % [4]	Incidence: number of mice suffering from pulmonary fibrosis [4]	Grade: total score of pulmonary fibrosis/total number of test animal [4]	Grade of pulmonary fibrosis, Ratio [4]	Incidence of pulmonary fibrosis, Ratio [4]	Antimicrobial potency of Cu--free compound, against Bacillus subtilis [5]	Grade of pulmonary fibrosis, % [6]	Incidence of pulmonary fibrosis, % [6]	Incidence: number of mice with pulmonary fibrosis/number of mice [6]	Grade: total score of pulmonary fibrosis/total number of samples [6]
CCCC[N+](CCCC)(CCCNC(=O)c1csc(-c2csc(CCNC(=O)C(NC(=O)C(C)C(O)C(C)NC(=O)C(NC(=O)c3nc(C(CC(N)=O)NCC(N)C(N)=O)nc(N)c3C)C(OC3OC(CO)C(O)C(O)C3OC3OC(CO)C(O)C(OC(N)=O)C3O)c3cnc[nH]3)C(C)O)n2)n1)CCCN(Cc1ccccc1)Cc1ccccc1 (centres unmarked) [compound 38, 3-{N,N--Dibutyl-N--[3'-(dibenzylamino)propyl]amino}propylaminoBLM]	2.00 µg/mL	17910 mcg potency per mg	156%	0%	0%	0/9	0/27	0.00	0.00	530 mcg potency per mg				
Cc1c(N)nc(C(CC(N)=O)NCC(N)C(N)=O)nc1C(=O)NC(C(=O)NC(C)C(O)C(C)C(=O)NC(C(=O)NCCc1nc(-c2nc(C(=O)NCCCN(CCCN(Cc3ccccc3)Cc3ccccc3)Cc3ccccc3)cs2)cs1)C(C)O)C(OC1OC(CO)C(O)C(O)C1OC1OC(CO)C(O)C(OC(N)=O)C1O)c1cnc[nH]1 (centres unmarked) [Compound No. 40, 3-{N--benzyl-N--[3'-(dibenzylamino)propyl]amino}propylaminoBLM]	1.90 µg/mL	4450 mcg potency per mg	154%							479 mcg potency per mg				
Cc1c(N)nc(C(CC(N)=O)NCC(N)C(N)=O)nc1C(=O)NC(C(=O)NC(C)C(O)C(C)C(=O)NC(C(=O)NCCc1nc(-c2nc(C(=O)NCCC[N+](C)(C)CCC[N+](C)(C)CCCN(Cc3ccccc3)Cc3ccccc3)cs2)cs1)C(C)O)C(OC1OC(CO)C(O)C(O)C1OC1OC(CO)C(O)C(OC(N)=O)C1O)c1cnc[nH]1 (centres unmarked) [Compound No. 41, 3-{N,N--Dimethyl-N--[3'-(N,N--dimethyl-N--(3"-dibenzylaminopropyl)amino)propyl]amino}propylaminoBLM]	0.66 µg/mL	16000 mcg potency per mg	184%	0%	0%	0/9	0/27	0.00	0.00	7100 mcg potency per mg				
Cc1c(N)nc(C(CC(N)=O)NCC(N)C(N)=O)nc1C(=O)NC(C(=O)NC(C)C(O)C(C)C(=O)NC(C(=O)NCCc1nc(-c2nc(C(=O)NCCC[N+](C)(C)CCCNCC3CCCCCCC3)cs2)cs1)C(C)O)C(OC1OC(CO)C(O)C(O)C1OC1OC(CO)C(O)C(OC(N)=O)C1O)c1cnc[nH]1 (centres unmarked) [compound 36, 3-{N,N--Dimethyl-N--[3'-(cyclooctylmethylamino)propyl]amino}propylaminoBLM]	0.29 µg/mL	21840 mcg potency per mg	150%							20000 mcg potency per mg				
Cc1c(N)nc(C(CC(N)=O)NCC(N)C(N)=O)nc1C(=O)NC(C(=O)NC(C)C(O)C(C)C(=O)NC(C(=O)NCCc1nc(-c2nc(C(=O)NCCCN(C)CCCNC(C)c3ccc(Cl)cc3)cs2)cs1)C(C)O)C(OC1OC(CO)C(O)C(O)C1OC1OC(CO)C(O)C(OC(N)=O)C1O)c1cnc[nH]1 (centres unmarked) [compound 14, 3-{N--Methyl-N--[3'-(1"-p-chlorophenylethylamino)propyl]amino}propylaminoBLM]	0.52 µg/mL	16959 mcg potency per mg		11%	22%	2/9	3/27	0.13	0.35	5459 mcg potency per mg	24%	57%	4/7	5/21
Cc1c(N)nc(C(CC(N)=O)NCC(N)C(N)=O)nc1C(=O)NC(C(=O)NC(C)C(O)C(C)C(=O)NC(C(=O)NCCc1nc(-c2nc(C(=O)NCCCN(C)CCCNCC(c3ccccc3)c3ccccc3)cs2)cs1)C(C)O)C(OC1OC(CO)C(O)C(O)C1OC1OC(CO)C(O)C(OC(N)=O)C1O)c1cnc[nH]1 (centres unmarked) [compound 17, 3-{N--Methyl-N--[3'-(2",2"-diphenylethylamino)propyl]amino}propylaminoBLM]	1.00 µg/mL	21084 mcg potency per mg		7%	20%	1/5	1/15	0.08	0.32	3554 mcg potency per mg	7%	22%	2/9	2/27
Cc1c(N)nc(C(CC(N)=O)NCC(N)C(N)=O)nc1C(=O)NC(C(=O)NC(C)C(O)C(C)C(=O)NC(C(=O)NCCc1nc(-c2nc(C(=O)NCCCN(C)CCCNCc3c4ccccc4cc4ccccc34)cs2)cs1)C(C)O)C(OC1OC(CO)C(O)C(O)C1OC1OC(CO)C(O)C(OC(N)=O)C1O)c1cnc[nH]1 (centres unmarked) [compound 21, 3-{N--Methyl-N--[3'-(9-anthramethylamino)propyl]amino}propylaminoBLM]	0.80 µg/mL	13250 mcg potency per mg	148%							4504 mcg potency per mg				
Cc1c(N)nc(C(CC(N)=O)NCC(N)C(N)=O)nc1C(=O)NC(C(=O)NC(C)C(O)C(C)C(=O)NC(C(=O)NCCc1nc(-c2nc(C(=O)NCCCN(C)CCCNCc3ccc(Cl)cc3Cl)cs2)cs1)C(C)O)C(OC1OC(CO)C(O)C(O)C1OC1OC(CO)C(O)C(OC(N)=O)C1O)c1cnc[nH]1 (centres unmarked) [compound 8, 3-{N--Methyl-N--[3'-(o,p-dichlorobenzylamino)propyl]amino}propylaminoBLM]	1.05 µg/mL	13013 mcg potency per mg		7%	11%	1/9	2/27	0.08	0.18	2940 mcg potency per mg	25%	25%	2/8	6/24
